# Test results taken from EP1954678B1, “NOVEL NK1 AND NK2 ANTAGONISTS” (Abbott Products GmbH, priority 2005, dated 2007).
# Columns and labels:
# [1] = molecular target: T1, cloned human NK1 receptors (Homo sapiens, UniProt P25103); assay: Ca2+ measurements using FLIPR for NK1 activity in CHO cells; format: cell-based; conditions: substance P 10^-8 M as agonist; compound applied 7 min before; pA2 calculated from IC50
# T1 construct: expressed in transfected cells
# Excerpt: (§1) The NK receptor is coupled to Gq.
# (§2) All steps were done under sterile conditions. […] The results are summarized in table 5: Table 5: pA2 data for NK1 and NK2: […]
# [2] = molecular target: T2, cloned human NK2 receptors (Homo sapiens, UniProt P21452); assay: Ca2+ measurements using FLIPR for NK2 activity in CHO cells; format: cell-based; conditions: NKA 10^-7 M as agonist; compound applied 7 min before; pA2 calculated from IC50
# T2 construct: expressed in transfected cells
# T2 sequence (P21452 1-398): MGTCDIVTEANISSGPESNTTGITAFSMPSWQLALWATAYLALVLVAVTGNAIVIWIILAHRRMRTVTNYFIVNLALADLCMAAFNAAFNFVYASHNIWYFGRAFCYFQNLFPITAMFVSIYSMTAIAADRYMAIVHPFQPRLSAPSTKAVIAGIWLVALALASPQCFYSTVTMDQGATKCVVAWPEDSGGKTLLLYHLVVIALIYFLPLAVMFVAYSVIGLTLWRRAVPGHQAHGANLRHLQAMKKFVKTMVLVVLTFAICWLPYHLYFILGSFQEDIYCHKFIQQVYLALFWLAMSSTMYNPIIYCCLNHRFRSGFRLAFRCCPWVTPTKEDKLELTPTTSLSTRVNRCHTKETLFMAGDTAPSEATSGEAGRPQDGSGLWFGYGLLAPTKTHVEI
# Excerpt: as §1, §2
# human NK1 receptors = molecular target: T3, human NK1 receptors (Homo sapiens, UniProt P25103); assay: Binding of the test substances to NK1 receptors in vitro ([3H]-Substance P displacement, CHO cell membranes); conditions: [3H]-Substance P as ligand; membranes of CHO cells expressing the human NK1 receptor; Ki calculated from IC50; read-out: pKi (NK1) (converted)
# T3 construct: expressed in transfected cells; host or cells: CHO cells (membrane preparation)
# Experimental: In The Netherlands, the affinity of the test substances to human NK1 receptors was measured in vitro.
# The receptor binding studies were performed with [^3H]-Substance P as ligand. For the binding test, different samples of a membrane preparation of CHO cells (= egg cells of the Chinese hamster, Chinese hamster oocytes), which express the human NK1 receptor ("Accession Number" of the associated nucleic acid sequence = M74290; "Accession Number" of the associated protein sequence = P25103; cf. Takeda, Y.; Chou, K. B., Takeda, J.; Sachais, B.S. and Krause, J. E; Biochemical and Biophysical Research Communications, 179(3) (1991) 1232 - 1240), were incubated with a solution of the marked ligand, with the incubation mixtures containing no test substance or additions of different concentrations of test substance. Then, separation of bound and free ligands was performed in each of the samples with the aid of glass-fibre filtration. The fraction remaining in the filter was washed several times with buffer solution and then the radioactivity of the fraction remaining in the filter was measured using a beta scintillation counter.
# For the compounds of Examples 1 to 14, that concentration which effects half maximum displacement of the bound ligand was determined as IC50 of the respective test substance. From this, the corresponding inhibition constant (Ki value) of the test substance was calculated, and was stated as the negative common logarithm of the Ki value (= pKi value). The pKi value is a measurement of the affinity of the test substances to human NK1 receptors.
# human NK2 receptors = molecular target: T4, human NK2 receptors (Homo sapiens, UniProt P21452); assay: Binding of the test substances to NK2 receptors in vitro ([3H]-SR 48968 displacement, CHO cell membranes); conditions: [3H]-SR 48968 as ligand; membranes of CHO cells expressing the human NK2 receptor; 90 min incubation; Ki calculated from IC50; read-out: pKi (NK2) (converted)
# T4 construct: expressed in transfected cells; host or cells: CHO cells (membrane preparation)
# T4 sequence (P21452 1-398): T2 sequence (P21452 1-398)
# Experimental: The affinity of the test substances to human NK2 receptors was measured in vitro. The ability of the test substances to displace the selective NK2 receptor antagonist SR 48968 (= saredutant) used as reference ligand from its corresponding bond was determined.
# The receptor binding studies were carried out with radioactively marked [^3H]-SR 48968 (from Amersham) as ligand. For the binding test, different samples of a membrane preparation of CHO cells (= egg cells of the Chinese hamster, Chinese hamster oocytes), which express the human NK2 receptor (for preparation, see N.P. Gerard et al., Journal of Biological Chemistry 265/33 (1990) 20455-20462), were incubated for 90 minutes (= min.) with a solution of the marked ligand, with the incubation mixtures containing no test substance or additions of different concentrations of test substance. Then in each case the membrane-bound ligands in the samples were separated from free ligands by filtration. The fraction remaining in the filter was washed several times with buffer solution, before its radioactivity was measured using a liquid scintillation counter. That concentration which effects half-maximum displacement of the bound reference ligand was determined as IC50 of the respective test substance. The inhibition constant (Ki value) of the test substance was calculated from the respective IC50 value, and was stated as the negative logarithmised value thereof (pKi).
# If several measurements were performed, the average thereof was listed each time. The pKi value is a measurement of the affinity of the test substances to human NK2 receptors.
# T3 sequence (P25103 whole entry): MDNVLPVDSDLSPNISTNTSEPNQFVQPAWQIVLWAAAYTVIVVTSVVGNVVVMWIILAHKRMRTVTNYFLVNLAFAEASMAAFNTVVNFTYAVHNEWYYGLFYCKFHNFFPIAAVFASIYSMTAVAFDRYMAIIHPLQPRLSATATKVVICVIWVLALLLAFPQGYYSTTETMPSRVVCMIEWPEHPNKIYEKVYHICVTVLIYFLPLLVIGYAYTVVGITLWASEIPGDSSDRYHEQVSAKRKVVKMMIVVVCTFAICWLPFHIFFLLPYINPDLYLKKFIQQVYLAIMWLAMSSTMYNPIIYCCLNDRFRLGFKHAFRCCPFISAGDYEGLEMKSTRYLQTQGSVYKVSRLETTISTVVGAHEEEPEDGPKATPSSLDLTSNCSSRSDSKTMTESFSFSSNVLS
# T1 sequence (P25103 whole entry): as above
pA2 (NK1) [1],pA2 (NK2) [2],Kb [1],Ki (human NK1 receptors),Ki (human NK2 receptors),Kb [2],Compound
"8,1","7,8",–,–,–,–,CN(CC(CCN1CCN(C(Cc2ccccc2)C(O)CO)CC1)c1ccc(Cl)c(Cl)c1)C(=O)c1cc(C#N)cc2ccccc12 (stereo not drawn) [Compound 24]
–,–,7.94 nM,3.98 nM,1000 nM,3.16 nM,"CN(C[C@@H](CCN1CCN([C@@H](c2cc3ccccc3s2)[C@H](O)CO)CC1)c1ccc(Cl)c(Cl)c1)C(=O)c1cc(C#N)cc2ccccc12 [Compound 22, N-[(2S)-4-{4-[(1R,2S)-1-(1-benzothien-2-yl)-2,3-dihydroxypropyl]piperazin-1-yl}-2-(3,4-dichlorophenyl)butyl]-3-cyano-N-methyl-1-naphthamide]"
–,–,2 nM,12.6 nM,50.1 nM,25.1 nM,"CN(C[C@@H](CCN1CCN(C(CO)c2ccco2)CC1)c1ccc(Cl)c(Cl)c1)C(=O)c1cc(C#N)cc2ccccc12 (stereo partly drawn) [Compound 28, 3-cyano-N-[(2S)-2-(3,4-dichlorophenyl)-4-{4-[1-(2-furyl)-2-hydroxyethyl]piperazin-1-yl}butyl]-N-methyl-1-naphthamide]"
–,–,–,1.58 nM,63.1 nM,–,"CN(C[C@@H](CCN1CCN([C@@H](c2ccco2)[C@H](O)[C@H](O)[C@H](O)CO)CC1)c1ccc(Cl)c(Cl)c1)C(=O)c1cc(C#N)cc2ccccc12 [Compound 3, 3-cyano-N-[(2S)-2-(3,4-dichlorophenyl)-4-{4-[(1R,2S,3S,4R)-1-(2-furyl)-2,3,4,5-tetrahydroxypentyl]piperazin-1-yl}butyl]-N-methyl-1-naphthamide]"
–,–,20 nM,31.6 nM,3160 nM,20 nM,"CN(C[C@@H](CCN1CCN([C@@H](c2cc3ccccc3o2)[C@H](O)CO)CC1)c1ccc(Cl)c(Cl)c1)C(=O)c1cc(C#N)cc2ccccc12 [Compound 17, N-[(2S)-4-{4-[(1R,2S)-1-(1-benzofuran-2-yl)-2,3-dihydroxypropyl]piperazin-1-yl}-2-(3,4-dichlorophenyl)butyl]-3-cyano-N-methyl-1-naphthamide]"
–,–,–,10 nM,100 nM,–,"CN(C[C@@H](CCN1CCN([C@@H](c2ccoc2)[C@H](O)CO)CC1)c1ccc(Cl)c(Cl)c1)C(=O)c1cc(C#N)cc2ccccc12 [Compound 12, 3-cyano-N-[(2S)-2-(3,4-dichlorophenyl)-4-{4-[(1S,2S)-1-(3-furyl)-2,3-dihydroxypropyl]piperazin-1-yl}butyl]-N-methyl-1-naphthamide]"
"9,2","8,1",–,–,–,–,"CC(=O)OC[C@@H](OC(C)=O)[C@H](c1ccco1)N1CCN(CC[C@H](CN(C)C(=O)c2cc(C#N)cc3ccccc23)c2ccc(Cl)c(Cl)c2)CC1 [Compound 27, (2S,3R)-2-(acetyloxy)-3-{4-[(3S)-4-[3-cyano-1-naphthoyl)(methyl)amino]-3-(3,4-dichlorophenyl)butyl]piperazin-1-yl}-3-(2-furyl)propyl acetate]"
–,–,–,2.51 nM,126 nM,–,"CN(C[C@@H](CCN1CCN([C@@H](c2ccsc2)[C@H](O)[C@H](O)[C@H](O)CO)CC1)c1ccc(Cl)c(Cl)c1)C(=O)c1cc(C#N)cc2ccccc12 [Compound 4, 3-cyano-N-[(2S)-2-(3,4-dichlorophenyl)-4-{4-[(1S,2S,3S,4R)-2,3,4,5-tetrahydroxy-1-(3-thienyl)pentyl]piperazin-1-yl}butyl]-N-methyl-1-naphthamide]"
–,–,6.31 nM,3.16 nM,158 nM,2.51 nM,"CN(C[C@@H](CCN1CCN([C@@H](c2ccc(Cl)s2)[C@H](O)CO)CC1)c1ccc(Cl)c(Cl)c1)C(=O)c1cc(C#N)cc2ccccc12 [Compound 18, N-[(2S)-4-{4-[(1R,2S)-1-(5-chloro-2-thienyl)-2,3-dihydroxypropyl]piperazin-1-yl}-2-(3,4-dichlorophenyl)butyl]-3-cyano-N-methyl-1-naphthamide]"
–,–,0.398 nM,5.01 nM,12.6 nM,3.16 nM,"CN(C[C@@H](CCN1CCN(C(c2ccco2)C(O)CO)CC1)c1ccc(Cl)c(Cl)c1)C(=O)c1cc(C#N)cc2ccccc12 (stereo partly drawn) [Compound 14, 3-cyano-N-[(2S)-2-(3,4-dichlorophenyl)-4-{4-[1-(2-furyl)-2,3-dihydroxypropyl]piperazin-1-yl}butyl]-N-methyl-1-naphthamide]"
"8,0","7,4",–,–,–,–,CC(=O)OCC(O)C(Cc1ccccc1)N1CCN(CCC(CN(C)C(=O)c2cc(C#N)cc3ccccc23)c2ccc(Cl)c(Cl)c2)CC1 (stereo not drawn) [Compound 26]
"9,3","9,1",–,–,–,–,"COc1ccc([C@@H]([C@H](O)CO)N2CCN(CC[C@H](CN(C)C(=O)c3cc(C#N)cc4ccccc34)c3ccc(Cl)c(Cl)c3)CC2)cc1 [Compound 16, 3-cyano-N-[(2)-2-(3,4-dichlorophenyl)-4-{4-[(1S,2S)-2,3-dihydroxy-1-(4-methoxyohenyl)propyl]piperazin-1-yl}butyl]-N-methyl-1-naphthamide]"
–,–,3.16 nM,7.94 nM,39.8 nM,1 nM,"CN(C[C@@H](CCN1CCN(C(CO)c2ccco2)CC1)c1ccc(Cl)c(Cl)c1)C(=O)c1cc(C#N)cc2ccccc12 (stereo partly drawn) [Compound 25, 3-cyano-N-[(2S)-2-(3,4-dichlorophenyl)-4-{4-[1-(2-furyl)-2-hydroxyethyl]piperazin-1-yl}butyl]-N-methyl-1-naphthamide]"
–,–,0.794 nM,2 nM,398 nM,0.316 nM,"CN(C[C@@H](CCN1CCN([C@@H](c2ccc3c(c2)OCO3)[C@H](O)CO)CC1)c1ccc(Cl)c(Cl)c1)C(=O)c1cc(C#N)cc2ccccc12 [Compound 21, N-[(2S)-4-{4-[(1S,2S)-1-(1,3-benzodioxol-5-yl)-2,3-dihydroxypropyl]piperazin-1-yl}-2-(3,4-dichlorophenyl)butyl]-3-cyano-N-methyl-1-naphthamide]"
